Data: patent publication US11865086B2, “Cinnamaldehyde derivative compounds and methods of use for cinnamaldehyde derivative compounds nicotine cessation” (Pacific University, priority 2018, dated 2024)
Where two headings read alike, the source gives them in different places.

Key:
CYP2A6 [1] = target: T1, CYP2A6 (Homo sapiens, UniProt P11509); assay: biochemical
T1 sequence (P11509 1-494): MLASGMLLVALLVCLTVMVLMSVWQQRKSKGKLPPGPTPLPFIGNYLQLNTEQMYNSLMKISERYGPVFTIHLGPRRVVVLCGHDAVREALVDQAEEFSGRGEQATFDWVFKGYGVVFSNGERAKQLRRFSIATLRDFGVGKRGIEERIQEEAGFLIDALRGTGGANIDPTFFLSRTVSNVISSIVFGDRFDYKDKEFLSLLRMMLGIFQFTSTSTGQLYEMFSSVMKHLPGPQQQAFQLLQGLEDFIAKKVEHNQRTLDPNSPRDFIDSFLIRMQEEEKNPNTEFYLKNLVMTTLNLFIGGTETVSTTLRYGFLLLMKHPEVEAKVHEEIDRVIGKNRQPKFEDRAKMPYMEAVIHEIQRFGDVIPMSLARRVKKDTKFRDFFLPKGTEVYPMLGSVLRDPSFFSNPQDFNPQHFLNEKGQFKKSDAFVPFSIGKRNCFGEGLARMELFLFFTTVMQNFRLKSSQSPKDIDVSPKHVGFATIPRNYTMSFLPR
Excerpt: (§1) Since this type of inhibition also requires that the inhibitor is initially metabolized by the target enzyme, MBIs may be identified by evaluating the inhibition in the presence and absence of cofactors that are required for activity, such as NADPH for CYPs.

[2] = parameters: species or system humans; settings: human
Method: This has also observed in rats, for which full pharmacokinetic studies are available. Converting the dose in rats to humanized equivalent doses can estimate the doses necessary to achieve low μM concentrations of CA in humans. […] In rats a single 250 mg/kg oral dose generated a t-CA blood concentration of 7.6 μM. With the BSA method, t-CA doses of 32 mg and 320 mg per day are estimated to achieve concentrations of 0.1 and 1 μM in humans.

[3] = in vivo; cited from earlier work
CYP2A6 [4] = target: T1, CYP2A6; assay: biochemical; remark: listed apart in the source
Excerpt: A 96-well plate assay and fluorescence spectroscopy may be used to quantify the product, 7-hydroxycoumarin.
Data was fit using GraphPad Prism.

CYP2A6 [5] = target: T1, CYP2A6; settings: recombinant enzyme
Excerpt: as §1

[6] = rat, in vivo, po, 250 mg/kg; cited from earlier work
CYP2A6 [7] = target: T2, CYP2A6 (Homo sapiens, UniProt P11509, K28S/Q25K/Q26K/R27T/W24A); assay: biochemical
T2 sequence (P11509 with tags, fused parts or gaps limits assumed): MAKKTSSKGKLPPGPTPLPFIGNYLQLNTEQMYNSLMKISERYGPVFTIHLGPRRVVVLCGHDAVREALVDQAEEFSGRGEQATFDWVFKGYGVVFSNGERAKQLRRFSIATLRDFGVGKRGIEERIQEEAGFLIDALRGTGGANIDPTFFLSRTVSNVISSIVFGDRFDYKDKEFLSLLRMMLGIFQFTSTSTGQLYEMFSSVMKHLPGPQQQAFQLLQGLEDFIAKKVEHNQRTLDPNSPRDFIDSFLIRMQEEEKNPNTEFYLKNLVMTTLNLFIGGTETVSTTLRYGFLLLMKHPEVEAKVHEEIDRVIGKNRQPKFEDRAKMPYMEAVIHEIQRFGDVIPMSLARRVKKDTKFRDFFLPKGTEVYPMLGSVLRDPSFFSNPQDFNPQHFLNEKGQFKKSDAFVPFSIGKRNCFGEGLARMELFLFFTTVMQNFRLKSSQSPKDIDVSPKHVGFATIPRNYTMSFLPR
Method: Spectral binding studies were conducted using purified heterologously expressed CYP2A6 in Escherichia coli. […] Absorbance changes (A386-A418) may be plotted against added ligand concentrations in order to determine dissociation constants.
In more detail, the CYP2A6 enzyme may be heterologously expressed in Escherichia coli and purified. The expression vector, pKK2A6dH may be used to express the enzyme. The vector contains a cDNA sequence that codes for human CYP2A6 with a deletion of the N-terminal transmembrane sequence, an alteration of several residues at the modified N-terminus to increase expression, and four histidine residues added at the C-terminus to aid in purification. […] Expression from the vector may be induced with the addition of IPTG to bacterial cultures. δ-Aminolevulinic acid is added during expression to supplement heme biosynthesis. The enzyme may be purified following previously reported protocols. Briefly, following cell disruption, the solubilized enzyme may be purified using Ni^2+-affinity chromatography and cation-exchange (CM sepharose) chromatography, which may lead to protein of high purity and P450 content.

O=C/C=C/c1ccccc1 [t-CA, trans-cinnamaldehyde]
Ki (CYP2A6 [1]): 27.2 µM | estimated t-CA dose ([2]; 0.1 μM): 32 mg per day | estimated t-CA dose ([2]; 1 μM): 320 mg per day | absorption upon oral administration [3]: completely absorbed | IC50 (CYP2A6 [4]): 6.9 ± 1.2 µM | time-dependent inhibition of CYP2A6, result in words (CYP2A6 [5]): increases with time | t-CA blood concentration [6]: 7.6 µM | Kd (CYP2A6 [7]): 14.9 µM
